These results are taken from US20250270209A1 (INTERLINE THERAPEUTICS, INC., priority 2022, published 2025).

By pIC50 is commonly meant the IC50 on a negative log10 scale, so that one unit is a factor of ten.

Assay [1] addresses LRRK2 wild type enzyme (Homo sapiens, UniProt Q5S007). Description: Biochemical Assay: LRRK2 TR-FRET (LanthaScreen) kinase assay with LRRKtide substrate. Conditions: LRRK2 Inhibition, Table 8. In a few lines:
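TR-FRET detection (Tb-labelled phospho-LRRKtide antibody, EDTA stop, 30 min) followed a 120 min, 23 °C reaction of 3 nM wild-type human LRRK2 with LRRKtide (400 nM) and ATP (25 μM) in Tris pH 8.0. Compounds: 11-point 3-fold series from 10 μM, 15 min enzyme preincubation.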
Background: In TR-FRET formats the signal depends on donor and acceptor labels being close together.

The target of assay [2] is T1, wild type LRRK2 overexpressed in recombinant HEK-293T cells (Homo sapiens, UniProt Q5S007).
T1 construct: host or cells: HEK293T (transient transfection with pCMV-LRRK2 WT plasmid)
Description: pS935 LRRK2 Cell Assay (HTRF, phospho-LRRK2 Ser935). The following applies: LRRK2 Inhibition, Table 8, 2 hours compound incubation. It counts as cell-based. Put shortly: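 Phospho-Ser935 LRRK2 measured by two-antibody HTRF (Eu-cryptate donor, d2 acceptor; 665/615 nm ratio) after overnight detection at 23° C. Before lysis, transiently LRRK2-transfected HEK-293T cells were exposed 2 h at 37° C to a 9-point, 3-fold series from 10 μM, with DMSO at 0.2%.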

pIC50: −log10 of the molar value.

Sequence of LRRK2 wild type enzyme (Q5S007 whole entry): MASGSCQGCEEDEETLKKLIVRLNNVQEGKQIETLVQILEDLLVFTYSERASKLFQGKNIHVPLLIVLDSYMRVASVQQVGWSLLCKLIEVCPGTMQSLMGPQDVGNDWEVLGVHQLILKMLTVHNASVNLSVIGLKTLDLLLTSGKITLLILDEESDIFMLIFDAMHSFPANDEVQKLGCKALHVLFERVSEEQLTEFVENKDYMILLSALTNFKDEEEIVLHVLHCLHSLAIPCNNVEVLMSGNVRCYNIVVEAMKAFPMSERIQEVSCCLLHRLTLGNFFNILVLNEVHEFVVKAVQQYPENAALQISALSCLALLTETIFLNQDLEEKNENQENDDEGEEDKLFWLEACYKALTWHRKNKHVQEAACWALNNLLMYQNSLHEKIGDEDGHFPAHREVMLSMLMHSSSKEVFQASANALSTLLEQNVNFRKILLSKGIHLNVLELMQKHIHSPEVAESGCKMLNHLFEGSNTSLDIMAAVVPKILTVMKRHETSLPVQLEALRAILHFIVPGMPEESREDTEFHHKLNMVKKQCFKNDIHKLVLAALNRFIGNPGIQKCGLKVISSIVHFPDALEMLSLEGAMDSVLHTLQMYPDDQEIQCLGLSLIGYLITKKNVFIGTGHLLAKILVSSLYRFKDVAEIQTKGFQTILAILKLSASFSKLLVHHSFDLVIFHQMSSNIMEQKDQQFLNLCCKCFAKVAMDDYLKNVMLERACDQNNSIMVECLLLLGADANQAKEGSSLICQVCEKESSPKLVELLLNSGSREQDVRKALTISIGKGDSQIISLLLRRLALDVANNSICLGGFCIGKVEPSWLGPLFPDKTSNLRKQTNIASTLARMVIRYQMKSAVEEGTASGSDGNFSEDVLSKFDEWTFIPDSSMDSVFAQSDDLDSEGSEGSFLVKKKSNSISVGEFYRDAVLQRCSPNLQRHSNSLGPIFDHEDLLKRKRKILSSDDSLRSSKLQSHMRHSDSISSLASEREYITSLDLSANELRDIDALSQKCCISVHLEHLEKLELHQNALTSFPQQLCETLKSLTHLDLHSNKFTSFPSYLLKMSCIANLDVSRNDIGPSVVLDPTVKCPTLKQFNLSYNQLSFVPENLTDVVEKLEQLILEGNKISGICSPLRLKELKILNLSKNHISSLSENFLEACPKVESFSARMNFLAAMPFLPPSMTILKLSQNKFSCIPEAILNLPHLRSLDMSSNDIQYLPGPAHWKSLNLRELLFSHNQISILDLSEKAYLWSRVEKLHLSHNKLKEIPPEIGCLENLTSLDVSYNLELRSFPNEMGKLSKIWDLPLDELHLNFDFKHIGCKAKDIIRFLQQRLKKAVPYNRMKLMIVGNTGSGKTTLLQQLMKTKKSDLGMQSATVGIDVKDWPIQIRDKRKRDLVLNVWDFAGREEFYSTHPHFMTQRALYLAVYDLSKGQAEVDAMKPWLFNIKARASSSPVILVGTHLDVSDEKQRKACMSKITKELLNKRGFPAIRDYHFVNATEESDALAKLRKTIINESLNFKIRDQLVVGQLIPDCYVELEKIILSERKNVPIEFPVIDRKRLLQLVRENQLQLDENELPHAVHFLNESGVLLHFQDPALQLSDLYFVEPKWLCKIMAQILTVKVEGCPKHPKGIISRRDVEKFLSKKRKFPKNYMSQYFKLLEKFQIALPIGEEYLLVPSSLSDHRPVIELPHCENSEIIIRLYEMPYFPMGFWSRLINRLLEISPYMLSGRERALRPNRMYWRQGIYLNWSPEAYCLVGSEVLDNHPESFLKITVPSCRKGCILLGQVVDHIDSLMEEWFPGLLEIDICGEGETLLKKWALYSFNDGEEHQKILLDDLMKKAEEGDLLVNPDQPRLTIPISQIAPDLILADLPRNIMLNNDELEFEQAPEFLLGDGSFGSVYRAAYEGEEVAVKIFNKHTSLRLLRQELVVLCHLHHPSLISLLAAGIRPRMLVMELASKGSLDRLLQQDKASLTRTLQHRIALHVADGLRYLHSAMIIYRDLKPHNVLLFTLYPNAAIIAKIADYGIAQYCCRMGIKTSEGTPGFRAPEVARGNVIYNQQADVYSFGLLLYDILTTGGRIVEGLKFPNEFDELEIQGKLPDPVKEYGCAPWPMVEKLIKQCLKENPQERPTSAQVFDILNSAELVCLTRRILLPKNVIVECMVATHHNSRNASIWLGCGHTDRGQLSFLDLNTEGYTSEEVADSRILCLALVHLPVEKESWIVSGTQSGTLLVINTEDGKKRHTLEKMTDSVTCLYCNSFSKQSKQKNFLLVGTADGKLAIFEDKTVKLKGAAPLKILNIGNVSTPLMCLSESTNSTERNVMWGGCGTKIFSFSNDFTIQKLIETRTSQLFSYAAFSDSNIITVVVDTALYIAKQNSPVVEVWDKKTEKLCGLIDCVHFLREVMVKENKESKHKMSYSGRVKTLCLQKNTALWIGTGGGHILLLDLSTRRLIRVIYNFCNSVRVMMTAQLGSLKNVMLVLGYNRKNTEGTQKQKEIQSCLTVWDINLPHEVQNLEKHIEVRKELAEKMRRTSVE
T1 sequence (Q5S007 whole entry): as above

In the case of `COCC1(CNC(=O)Cc2nc3cnc4ccc(C#N)cc4c3n2[C@@H]2CCO[C@H](C)C2)CC1` [Compound 267, N-[1-(methoxymethyl)cyclopropyl]methyl{3-[(2R,4R)-2-methyltetrahydro-2H-pyran-4-yl]-12-cyano-3,5,8-triazatricyclo[7.4.0.0^2,6]trideca-1,4,6,8,10,12-hexaen-4-yl}acetamide], the pIC50 in assay [1] was 9.38; in assay [2], 8.12.

`Cc1nnc(CNC(=O)Cc2nc3cnc4ccc(C#N)cc4c3n2[C@@H]2CCO[C@H](C)C2)o1` [Compound 257, N-[(5-methyl-1,3,4-oxadiazol-2-yl)methyl]{3-[(2R,4R)-2-methyltetrahydro-2H-pyran-4-yl]-12-cyano-3,5,8-triazatricyclo[7.4.0.0^2,6]trideca-1(9),2(6),4,7,10,12-hexaen-4-yl}acetamide]: the values for the pIC50 in assay [1] and in assay [2] were 9.35 and 7.01, respectively.

Regarding `C[C@@H]1C[C@H](n2c(CC(=O)Nc3ccn(CCO)n3)nc3cnc4ccc(C#N)cc4c32)CCO1` [Compound 175, 2-{8-cyano-1-[(2R,4R)-2-methyloxan-4-yl]-1H-imidazo[4,5-c]quinolin-2-yl}-N-[1-(2-hydroxyethyl)-1H-pyrazol-3-yl]acetamide], the results for the pIC50 in assay [1] and in assay [2] were 9.49 and 6.88, respectively.

For the molecule `C[C@@H]1C[C@H](n2c(CC(=O)NCc3ccn(C)n3)nc3cnc4ccc(C#N)cc4c32)CCO1` [Compound 157, 2-{8-cyano-1-[(2R,4R)-2-methyloxan-4-yl]-1H-imidazo[4,5-c]quinolin-2-yl}-N-[(1-methyl-1H-pyrazol-3-yl)methyl]acetamide], the pIC50 in assay [1] is 9.30; in assay [2] it was 7.59.

`C[C@@H]1C[C@H](n2c(CC(=O)Nc3ccnn3C)nc3cnc4ccc(C#N)cc4c32)CCO1` [Compound 169, 2-{8-cyano-1-[(2R,4R)-2-methyloxan-4-yl]-1H-imidazo[4,5-c]quinolin-2-yl}-N-(1-methyl-1H-pyrazol-5-yl)acetamide]: the pIC50 in assay [1] was 9.50; in assay [2], 7.84.

Turning to `CCOc1ccc(NC(=O)Cc2nc3cnc4ccc(C#N)cc4c3n2[C@@H]2CCO[C@H](C)C2)cn1` [Compound 274, N-(6-ethoxy-3-pyridyl){3-[(2R,4R)-2-methyltetrahydro-2H-pyran-4-yl]-12-cyano-3,5,8-triazatricyclo[7.4.0.0^2,6]trideca-1,4,6,8,10,12-hexaen-4-yl}acetamide], the pIC50 in assay [1] was 9.35; in assay [2], 8.10.

`C[C@@H]1C[C@H](n2c(CC(=O)Nc3cn(C)ccc3=O)nc3cnc4ccc(C#N)cc4c32)CCO1` [Compound 234, N-(1-methyl-4-oxo-1,4-dihydro-3-pyridyl){3-[(2R,4R)-2-methyltetrahydro-2H-pyran-4-yl]-12-cyano-3,5,8-triazatricyclo[7.4.0.0^2,6]trideca-1,4,6,8,10,12-hexaen-4-yl}acetamide]: the pIC50 in assay [1] was 9.18; in assay [2] it was 6.39.

Regarding `C[C@@H]1C[C@H](n2c(CC(=O)Nc3cc(C4CC4)on3)nc3cnc4ccc(C#N)cc4c32)CCO1` [Compound 359, N-(5-cyclopropyl-3-isoxazolyl){3-[(2R,4R)-2-methyltetrahydro-2H-pyran-4-yl]-12-cyano-3,5,8-triazatricyclo[7.4.0.0^2,6]trideca-1(9),2(6),4,7,10,12-hexaen-4-yl}acetamide], the negative-log IC50 (pIC50) was 9.28 in assay [1] and 8.32 in assay [2].

`C[C@@H]1C[C@H](n2c(CC(=O)Nc3ccn(C)c(=O)c3)nc3cnc4ccc(C#N)cc4c32)CCO1` [Compound 280, N-(1-methyl-2-oxo-1,2-dihydro-4-pyridyl){3-[(2R,4R)-2-methyltetrahydro-2H-pyran-4-yl]-12-cyano-3,5,8-triazatricyclo[7.4.0.0^2,6]trideca-1,4,6,8,10,12-hexaen-4-yl}acetamide]: the negative-log IC50 (pIC50) in assay [1] is 9.43; in assay [2], 6.31.

With `COc1cc(F)c(NC(=O)Cc2nc3cnc4ccc(C#N)cc4c3n2[C@@H]2CCO[C@H](C)C2)cn1` [Compound 235, N-(4-fluoro-6-methoxy-3-pyridyl){3-[(2R,4R)-2-methyltetrahydro-2H-pyran-4-yl]-12-cyano-3,5,8-triazatricyclo[7.4.0.0^2,6]trideca-1,4,6,8,10,12-hexaen-4-yl}acetamide], the negative-log IC50 (pIC50) in assay [1] was 9.34; in assay [2], 8.00.

Regarding `C[C@@H]1C[C@H](n2c(C3CCN(S(=O)(=O)C4CC4)CC3)nc3cnc4ccc(C#N)cc4c32)CCO1` [Compound 120, 2-[1-(cyclopropanesulfonyl)piperidin-4-yl]-1-[(2R,4R)-2-methyloxan-4-yl]-1H-imidazo[4,5-c]quinoline-8-carbonitrile], the pIC50 is 8.77 in assay [1] and 6.57 in assay [2].

Regarding `C[C@@H]1C[C@H](n2c(CC(=O)Nc3cn(C)c(C(F)(F)F)cc3=O)nc3cnc4ccc(C#N)cc4c32)CCO1` [Compound 232, N-[1-methyl-4-oxo-6-(trifluoromethyl)-1,4-dihydro-3-pyridyl]{3-[(2R,4R)-2-methyltetrahydro-2H-pyran-4-yl]-12-cyano-3,5,8-triazatricyclo[7.4.0.0^2,6]trideca-1,4,6,8,10,12-hexaen-4-yl}acetamide], the figures for the pIC50 in assay [1] and in assay [2] were 9.10 and 7.43, respectively.

As to `COc1cc(C2CC2)ncc1NC(=O)Cc1nc2cnc3ccc(C#N)cc3c2n1[C@@H]1CCO[C@H](C)C1` [Compound 213, N-(6-cyclopropyl-4-methoxy-3-pyridyl){3-[(2R,4R)-2-methyltetrahydro-2H-pyran-4-yl]-12-cyano-3,5,8-triazatricyclo[7.4.0.0^2,6]trideca-1,4,6,8,10,12-hexaen-4-yl}acetamide], the negative logarithm of the IC50 (pIC50) is 9.39 in assay [1] and 8.40 in assay [2].

Consider `CC(=O)N1CC[C@@H](c2nc3cnc4ccc(C#N)cc4c3n2[C@@H]2CCO[C@H](C)C2)C1` [Compound 42, 2-[(3R)-1-acetylpyrrolidin-3-yl]-1-[(2R,4R)-2-methyloxan-4-yl]-1H-imidazo[4,5-c]quinoline-8-carbonitrile], for which the values for the negative logarithm of the IC50 (pIC50) in assay [1] and in assay [2] were 7.89 and 5.68, respectively.

`Cc1ncncc1NC(=O)Cc1nc2cnc3ccc(C#N)cc3c2n1[C@@H]1CCO[C@H](C)C1` [Compound 216, N-(4-methyl-5-pyrimidinyl){3-[(2R,4R)-2-methyltetrahydro-2H-pyran-4-yl]-12-cyano-3,5,8-triazatricyclo[7.4.0.0^2,6]trideca-1,4,6,8,10,12-hexaen-4-yl}acetamide]: the results for the negative logarithm of the IC50 (pIC50) in assay [1] and in assay [2] were 9.37 and 7.91, respectively.

For the molecule `C[C@@H]1C[C@H](n2c(C(F)(F)C(=O)NCC3CC3)nc3cnc4ccc(C#N)cc4c32)CCO1` [Compound 334], the negative logarithm of the IC50 (pIC50) is 8.87 in assay [1] and 7.58 in assay [2].

With `C[C@@H]1C[C@H](n2c(CC3CN(C(=O)c4cnn(C)c4)C3)nc3cnc4ccc(C#N)cc4c32)CCO1` [Compound 60, 2-{[1-(1-methyl-1H-pyrazole-4-carbonyl)azetidin-3-yl]methyl}-1-[(2R,4R)-2-methyloxan-4-yl]-1H-imidazo[4,5-c]quinoline-8-carbonitrile], the pIC50 is 8.37 in assay [1] and 5.81 in assay [2].

For the molecule `C[C@@H]1C[C@H](n2c(C3CC(=O)N(c4cnn(C)c4)C3)nc3cnc4ccc(Cl)cc4c32)CCO1` (stereo partly drawn) [Compound 108, 4-{8-chloro-1-[(2R,4R)-2-methyloxan-4-yl]-1H-imidazo[4,5-c]quinolin-2-yl}-1-(1-methyl-1H-pyrazol-4-yl)pyrrolidin-2-one], the results for the negative-log IC50 (pIC50) in assay [1] and in assay [2] were 9.01 and 7.37, respectively.
